Measurements: patent US20190167676A1, “METHODS FOR IMPROVING RESISTANCE TO SKELETAL MUSCLE FATIGUE” (Cytokinetics, Inc., priority 2012, published 2019)

Experiments:
[1] = tested on: rat plantarflexor muscles; experiment: Rat plantar flexor force and power in situ; format: in vivo
Text: Rats were placed under anesthesia using isoflurane and the sciatic nerve of the experimental leg exposed. The rat was then placed on the platform of an Aurora in-situ muscle analysis rig (806C), maintained at body temperature via a circulating water system. The knee was immobilized in a clamp between two sharpened screws and the foot attached securely to the footplate of a force transducer (Aurora Scientific, Ontario, Canada) using laboratory tape. The muscle was stimulated directly via the sciatic nerve. For isolation of the nerve, a 1 cm incision was made at the upper thigh and the overlying muscle was dissected to expose an approximate 5 mm stretch of the sciatic nerve. This was then dissected free of surrounding connective tissue and a pair of stainless steel needle electrodes (0.10 mm) were hooked around the exposed nerve. The peroneal branch was severed to remove innervation to the plantar-extensor muscle groups. Muscle contractile properties were assessed by applying an electrical current to the nerve and recording the force generated by the muscle via a servomotor. Isokinetic contractile properties were assessed as force generated during a pre-programmed movement of the footplate. Footplate movements were 0.7 radians in size ([…]).
Solutions of Compound A (50% PEG300/10% EtOH/40% cavitron formulation) were administered via a femoral vein catheter as a single slow bolus over a 2 min period, with a maximal dosage volume of 5 ml/Kg. During the experiment, blood was drawn via the tail vein for compound concentration analysis. At the end of each assay, the length and weight of the muscle was recorded, and measured force normalized to the mass of the muscle (N/g).
Compound A increased force generation throughout the curve to generate a total of 55% more work over the 300 second period, while maintaining a similar profile to that of the vehicle.
The same protocol was repeated with a second skeletal muscle troponin activator, 1-((1R)-1-methylpropyl)-6-chloro-7-pyrazolylimidazo[4,5-b]pyridin-2-ol (Compound B). Compound B and analogous skeletal muscle troponin activators are disclosed in U.S. Pat. No. 7,989,469. […] 0.7 radian displacement and stimulation frequency calculated to provide 50% of maximum isokinetic tension. Compound B maintained force generation throughout the curve, at almost 50% of vehicle stimulation frequency, to generate the same total work over the 300 second period, while maintaining a similar profile to that of the vehicle.

[2] = target: fast skeletal troponin (Homo sapiens, UniProt P02585); settings: isothermal titration calorimetry; cited from earlier work
Sequence of fast skeletal troponin (P02585 whole entry): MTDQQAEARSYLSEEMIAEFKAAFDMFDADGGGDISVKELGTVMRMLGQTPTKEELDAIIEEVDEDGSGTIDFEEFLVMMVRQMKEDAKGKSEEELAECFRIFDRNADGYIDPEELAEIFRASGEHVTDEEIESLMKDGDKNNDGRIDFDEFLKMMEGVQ
Sequence of fast skeletal troponin (P48788 whole entry partner): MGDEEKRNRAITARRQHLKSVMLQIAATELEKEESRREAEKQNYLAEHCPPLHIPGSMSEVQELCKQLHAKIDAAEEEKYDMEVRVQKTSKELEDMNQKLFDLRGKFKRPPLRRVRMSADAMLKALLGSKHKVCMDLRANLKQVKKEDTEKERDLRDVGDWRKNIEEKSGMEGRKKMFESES
Sequence of fast skeletal troponin (P45378 whole entry partner): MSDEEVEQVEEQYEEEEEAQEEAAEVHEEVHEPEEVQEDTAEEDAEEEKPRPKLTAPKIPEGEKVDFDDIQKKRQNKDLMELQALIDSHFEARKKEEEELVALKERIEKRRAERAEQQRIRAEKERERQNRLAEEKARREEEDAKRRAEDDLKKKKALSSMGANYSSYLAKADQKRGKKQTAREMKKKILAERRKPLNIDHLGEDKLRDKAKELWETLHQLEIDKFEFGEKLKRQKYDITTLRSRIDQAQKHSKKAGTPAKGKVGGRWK

[3] = tested on: patients with peripheral artery disease and claudication; experiment: Safety and tolerability, Phase II study; format: in vivo, human
Experimental: (§1) This study was a double-blind, randomized, placebo-controlled, three-period cross-over, hypothesis generating Phase II study in patients with peripheral artery disease and claudication. […] Secondary objectives included (a) evaluation and characterization of the relationship, if any, between the doses and plasma concentrations of Compound A and its pharmacodynamic effects, and (b) evaluation of the safety and tolerability of Compound A administered as single doses.
Single doses of each of 375 mg Compound A, 750 mg Compound A and placebo were administered in random order with a 6 to 10 day wash out between each dose. […] Assessments include 1) Bilateral Heel Raise Test (as described below) using electrogoniometry at 3 and 6 hours after dosing, and 2) 6-Minute Walk Test at 4 hours after dosing. Results were analyzed using a repeated-measures ANCOVA with treatment, sequence, period, baseline, and patient in the model. In the event of model assumption violations, non-parametric methods were utilized

[4] = tested on: healthy rats; experiment: Treadmill running assay; format: in vivo, rat
Experimental: Male Sprague Dawley rats (Charles River), 10-12 weeks old, 250-400 g. Rats were acclimated for a minimum of 2 days and weight was measured weekly. The endurance capacity of rats was assessed using a progressive exercise test as previously described (A. Aaker et al. J Cardiovasc Pharmacol28: 353-362, 1996; B. Helwig et al. J Appl Physiol. 2003 June; 94(6):2225-36). After familiarization with the treadmill apparatus, rats were run at a treadmill speed of 30 meters per minute (m/min) with a 5% incline. Every 15 minutes, the treadmill speed was increased by 5 meters per minute and the rats continued to exercise until they reached the point of fatigue and were unable to continue exercising (FIG. 1A). Exercise time was measured in minutes while exercise distance was recorded in meters. Compound A was administered via oral gavage 2 hours prior to assessment. Each dose was formulated as a suspension containing 1% hydroxypropyl methylcellulose (HPMC), 0.2% Tween 80, and micronized Compound A, and dose volume was 5 ml/kg. Vehicle (0.2% Tween 80, 1% HPMC and water) was administered similarly.

[5] = tested on: patients with peripheral artery disease and claudication; experiment: 6-Minute Walk Test, Phase II study; format: in vivo, human; settings: single doses 375, 500, 750 mg; 4 hours after dosing
Text: as §1
Assessments include 1) Bilateral Heel Raise Test (as described below) using electrogoniometry at 3 and 6 hours after dosing, and 2) 6-Minute Walk Test at 4 hours after dosing. Results were analyzed using a repeated-measures ANCOVA with treatment, sequence, period, baseline, and patient in the model. In the event of model assumption violations, non-parametric methods were utilized

[6] = target: T1, fast skeletal myofibrils (Homo sapiens, UniProt P02585); settings: cited from earlier work
T1 construct: from tissue; host or cells: fast skeletal muscle myofibrils
T1 sequence (P02585 whole entry): as the sequence (P02585 whole entry) above
T1 sequence (P48788 whole entry partner): as the sequence (P48788 whole entry partner) above
T1 sequence (P45378 whole entry partner): as the sequence (P45378 whole entry partner) above

[7] = target: T2, myofibrils from cardiac muscle (Homo sapiens, UniProt P63316); settings: cited from earlier work
T2 construct: from tissue; host or cells: cardiac muscle myofibrils

[8] = 10 mg/kg oral gavage 2 hours prior
[9] = 20 mg/kg oral gavage 2 hours prior

C#Cc1cnc2nc(O)n(C(CC)CC)c2n1 [Compound A, 6-ethynyl-1-(pentan-3-yl)-1H-imidazo[4,5-b]pyrazin-2-ol]
isokinetic force frequency relationship ([1]; at 3.1 radians/s): increased in the submaximal range in a dose dependent manner | force-velocity relationship ([1]; at 30 Hz): increased across all velocities in a dose and velocity dependent manner | power output ([1]; corresponding to force velocities at 30 Hz): dose dependent increase | isometric force frequency relationship ([1]; in situ): increased in the submaximal range in a dose dependent manner | more total work over the 300 second period ([1]; isokinetic fatigue protocol, 1 flexion per second at 3.1 radians/s, 30 Hz, vs vehicle): 55% | Kd [2]: 40 nM | adverse events ([3]; 750 mg single dose): adverse events in two patients | adverse events vs dose ([3]; single doses 375-750 mg): Dose related adverse events, particularly dizziness and others related to walking | Distance (m) Mean ± SEM [4, 8]: 1972 ± 176 m | Time (Min) Mean ± SEM [4, 8]: 60.7 ± 4.2 min | Distance (m) Mean ± SEM [4, 9]: 1943 ± 205 m | Time (Min) Mean ± SEM [4, 9]: 59.4 ± 4.7 min | increase in treadmill running time over baseline ([4]; 10 and 20 mg/kg): 20% | increase in treadmill running time over vehicle control ([4]; 10 and 20 mg/kg): 50% | distance traversed during 6-Minute Walk Test [5]: dose and concentration dependent decrease | myosin ATPase relationship to Ca2+ concentration [6]: leftward-shift | effect in myofibrils [7]: little or no effect
